Measurements as given in patent US10045985B2, “Heteroaryl compounds as BTK inhibitors and uses thereof” (Merck Patent GmbH, priority 2015, dated 2018).

Assays:
[1] = target: T1, BTK C481S enzyme (His-TEV-hsBTK(328-659)(C481S)) (Homo sapiens, UniProt Q06187, C481S); assay: Assay B: microfluidic off-chip mobility shift assay for potency against BTK C481S enzyme; type: biochemical; conditions: 90 min at 25° C.
T1 construct: His-TEV-hsBTK(328-659)(C481S); His (N); TEV cleavage site (N)
Excerpt: Assay B: Microfluidic Off-Chip Mobility Shift Assay Protocol for Potency Assessment Against BTK C481S Enzyme
The protocol below describes a microfluidic, off-chip mobility shift kinase assay to measure inherent potency of compounds against BTK C481S enzyme. The mechanics of the assay platform are described by the vendor (PerkinElmer, Hopkinton, Mass.) on their website at the following URL: http://caliperls.com.
Briefly, 2.5× stocks of His-TEV-hsBTK(328-659)(C481S) from the Merck Serono Protein Purification Laboratory in Darmstadt, Germany (PCS, Q27/234), 1.6×ATP and appropriate KinKDR peptide substrate (FITC-AHA-EEPLYWSFPAKKK-NH2; Tufts University Core Facility custom synthesis) were prepared in kinase reaction buffer consisting of 25 mM MgCl2, 0.015% Brij-35 (30%), 100 mM HEPES, pH 7.5, and 10 mM DTT.
5 uL of enzyme buffer and 7.5 uL of ATP/KinKDR peptide substrate mix were added to Matrix (#4315) 384-well, sterile, flat-bottom polypropylene plates (Thermo Fisher Scientific, Hudson, N.H.) with 125 nL of serially diluted compounds prepared in 100% DMSO, and incubated for 90 min. at 25° C. Following the incubation period, reactions were terminated by adding 65 uL quench buffer consisting of 100 mM HEPES, pH 7.5, 0.015% Brij-35 (30%), 0.277% Coating Reagent #3 (PerkinElmer, Mountain View, Calif.), 5% DMSO. Terminated reactions were monitored at −2 PSI, −3000 V/−700 Volts in a LabChip 3000 plate reader from Caliper Life Sciences, a PerkinElmer Company (Hopkinton, Mass.), and the activity was quantified by laser-induced fluorescence measuring the charge/mass difference between substrate and product resulting from peptide phosphorylation. IC50 and efficacy were determined by plotting log [Inhibitor] vs. % Activity in GeneData Screener (Basel, Switzerland).

[2] = system: anti-IgM-induced expression of CD69 in human peripheral blood mononuclear cells (PBMCs); assay: Assay C: time dependent PMBC IC50 assay (anti-IgM-induced CD69 expression on CD19 positive cells); type: cell-based; conditions: PBMC, 1 h pre-treatment, anti-IgM overnight, CD69 on CD19 positive B cells
Excerpt: Assay C: Time Dependent PMBC IC50 Assay
Btk is critical for mediating the signalling of B cell antigen receptor (BCR) after anti-IgM stimulation. Based on this principle, a functional cell-based assay was established to determine the potency of compounds at inhibiting anti-IgM-induced expression of CD69, a downstream BCR signaling event, in freshly isolated human peripheral blood mononuclear cells (PBMCs). In the assay, a 90 al PBMC suspension containing 2.5×10^5 cells was pre-treated with 10 al of test compound at various concentrations for an hour, and then incubated overnight (approximately 16-18 hours) with 5 μl 420 μg/ml affiniPure F(ab′)2 fragment goat anti-human IgM Fc fragment per well (Dianova, Cat. No.: 109-006-129). After the incubation, the cells were washed and immunostained with an APC-labeled mouse anti-human CD69 (BD Biosciences; clone: FN50), a PerCP-Cy5.5 labelled mouse anti-human CD19 (BD Biosciences; clone: SJ25C1) and a FITC-labelled mouse anti-human CD3 (BD Biosciences; clone: HIT3a), and fixed for flow cytometric analysis of CD69 expression on CD19 positive cells (B cells). The percentage of CD69 expressing CD19 positive cells was plotted against the concentrations of test compounds to obtain a concentration response curve, and calculate an IC50 value as a measure of the potency of test compounds in the assay.

full-length human BTK = target: T2, full-length human BTK (Homo sapiens, UniProt Q06187); assay: Assay A: microfluidic off-chip mobility shift assay for potency against BTK enzyme; type: biochemical; conditions: 90 min at 27° C.
T2 construct: full-length human BTK (08-080) from CarnaBio USA, Inc; purchased CarnaBio USA, Inc., Natick, Mass; 08-080
Excerpt: Assay A: Microfluidic Off-Chip Mobility Shift Assay Protocol for Potency Assessment Against BTK Enzyme
The protocol below describes microfluidic, off-chip mobility shift kinase assay to measure inherent potency of compounds against BTK enzyme. The mechanics of the assay platform are best described by the vendor (Caliper Life Sciences, a PerkinElmer Company, Hopkinton, Mass.) on their website at the following URL:
Briefly, 2.5× stocks of full-length human BTK (08-080) from CarnaBio USA, Inc., Natick, Mass., 1.6×ATP and appropriate kinKDR peptide substrate (FITC-AHA-EEPLYWSFPAKKK-NH2; developed in-house) were prepared in kinase reaction buffer consisting of 25 mM MgCl2, 0.015% Brij-35 (30%), 100 mM Hepes, pH 7.5, and 10 mM DTT.
5 uL of enzyme buffer and 7.5 uL of ATP/kinKDR peptide substrate mix were added to Matrix (#115304) 384-well, sterile, polypropylene plates (Thermo Fisher Scientific, Hudson, N.H.) with 125 nL of serially diluted compounds prepared in 100% DMSO, and incubated for 90 min. at 27° C. following the incubation period, reactions were stopped by adding 60 uL stop buffer consisting of 100 mM Hepes, pH 7.5, 0.015% Brij-35 (30%), 0.277% Coating Reagent #3 (Caliper Life Sciences, Mountain View, Calif.), 5% DMSO. Stopped reactions were monitored at −2 PSI, −3000 V/−700 V in a LabChip 3000 plate reader from Caliper Life Sciences, a PerkinElmer Company (Hopkinton, Mass.), and the activity was measured by off-chip mobility shift assay measuring the charge/mass difference between substrate and product resulting from peptide phosphorilation. IC50 and efficacy were determined by plotting log [Inhibitor] vs. % Activity in GeneData Screener (Basel, Switzerland).

T1 sequence (Q06187 328-659 C481S): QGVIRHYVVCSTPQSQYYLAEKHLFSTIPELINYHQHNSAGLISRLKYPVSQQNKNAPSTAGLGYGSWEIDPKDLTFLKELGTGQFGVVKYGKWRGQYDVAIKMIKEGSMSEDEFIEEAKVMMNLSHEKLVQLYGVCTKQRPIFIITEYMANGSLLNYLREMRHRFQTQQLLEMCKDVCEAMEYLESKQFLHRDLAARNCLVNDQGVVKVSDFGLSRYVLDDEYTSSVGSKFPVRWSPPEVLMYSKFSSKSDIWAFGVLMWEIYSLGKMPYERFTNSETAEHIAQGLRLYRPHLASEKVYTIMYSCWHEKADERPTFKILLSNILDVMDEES
T2 sequence (Q06187 whole entry): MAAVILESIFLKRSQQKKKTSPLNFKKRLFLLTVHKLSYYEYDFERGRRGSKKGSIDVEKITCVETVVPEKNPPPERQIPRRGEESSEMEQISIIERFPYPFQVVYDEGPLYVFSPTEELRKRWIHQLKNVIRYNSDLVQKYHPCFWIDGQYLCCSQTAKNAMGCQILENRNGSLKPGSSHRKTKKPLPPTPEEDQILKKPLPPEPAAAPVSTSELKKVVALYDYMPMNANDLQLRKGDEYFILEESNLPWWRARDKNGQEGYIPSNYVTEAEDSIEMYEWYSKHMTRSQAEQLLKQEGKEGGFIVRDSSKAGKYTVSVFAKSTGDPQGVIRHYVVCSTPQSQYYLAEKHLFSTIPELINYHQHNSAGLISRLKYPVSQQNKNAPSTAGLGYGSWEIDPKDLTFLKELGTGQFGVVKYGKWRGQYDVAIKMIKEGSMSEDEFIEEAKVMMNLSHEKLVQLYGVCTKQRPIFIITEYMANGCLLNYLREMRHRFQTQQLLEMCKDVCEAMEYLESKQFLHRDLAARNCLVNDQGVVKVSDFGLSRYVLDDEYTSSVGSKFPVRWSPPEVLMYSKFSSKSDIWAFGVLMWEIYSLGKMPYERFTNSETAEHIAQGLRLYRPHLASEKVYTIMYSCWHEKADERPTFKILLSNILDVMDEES

Row | Compound | IC50 [1] | IC50 [2] | IC50 (full-length human BTK)
1 | COCCOc1ccc(Nc2ncc(F)c(NC3CCCC(NC(=O)c4ccc(C(C)(C)C)cc4)C3O)n2)cc1 (racemic) [Compound 16, 4-(tert-butyl)-N-(3-((5-fluoro-2-((4-(2-methoxyethoxy)phenyl)amino)pyrimidin-4-yl)amino)-2-hydroxycyclohexyl)benzamide] | < 100 nM | 1000 to 5000 nM | < 100 nM
2 | COCCOc1ccc(Nc2ncc(F)c(NC3CCCC(NC(=O)c4ccc(C5CC5)cc4)C3)n2)cc1 (centres unmarked) [Compound 10, 4-cyclopropyl-N-(3-((5-fluoro-2-((4-(2-methoxyethoxy)phenyl)amino)pyrimidin-4-yl)amino)cyclohexyl)benzamide] | 100 to 1000 nM | > 5000 nM | 100 to 1000 nM
3 | COCCOc1ccc(Nc2ncc(F)c(N[C@@H]3CCC[C@@H](NC(=O)c4ccc(C(C)(C)C)cc4)C3O)n2)cc1 (some centres unmarked) [Compound 24] | < 100 nM | – | < 100 nM
